Source: US6368788B1 (priority 1987, dated 2002)
Where “and” joins values, the source holds several entries; their conditions need not be identical. Identical values can stand only once. Marks after values point to notes of the source that are not given here.

Assays:
[1] = test system: upper respiratory infections; assay: Prophylaxis of respiratory infections in polar explorers; assay type: in vivo, human; settings: intranasal 1 μg/kg, 3 days
Corneal diseases = settings: in vivo
[2] = test system: lymphocytes of thymus, spleen, lymph nodes, peripheral blood; assay: Recovery of immune cells in irradiated guinea pigs (1 Gy); assay type: in vivo; settings: for E-RFC / E-RFC (% Normal) / EA-RFC / EA-RFC (% Normal) / EAC-RFC / EAC-RFC (% Normal) / Lymphocytes / Lymphocytes (% Normal) / Lymphocyte Blastogenesis with Con-A / Neutrophil Cationic Protein Levels: 0.01 mg/kg daily 5 days
Source text: X-irradiation an accepted experimental animal model for depressing cellular immune mechanisms operative in anti-bacterial, anti-viral, and anti-parasitic immunity. The levels of lymphocytes in thymus, spleen, and lymph node are decreased following sub-lethal radiation exposure, and the effects of L-Glu-L-Trp on recovery of immune function following radiation exposure were investigated in this model.
142 guinea pigs were exposed to 1 Gy of X-irradiation and then treated with L-Glu-L-Trp at a dose of 0.01 mg/kg daily for 5 days starting two days after the irradiation. Immunologic indices were determined at 5, 10, and 20 days by preparing samples of immune cells from thymus, spleen, lymph nodes, and peripheral blood. Cell preparations were analyzed to determine the content of lymphocytes, E-RFC (i.e., T-lymphocytes), EA-RFC (“activated” T-lymphocytes), and EAC-RFC (i.e., B-lymphocytes). (The materials and methods used in these analyses are presented following EXAMPLE 38, below. The results obtained in these experiments are summarized in TABLE 55. […]
Neutrophil cationic proteins were determined according to the method of V. E. Pigarevsky and Yu. A. Mazing (1981). Briefly, blood smears were air dried, stained for 20 minutes in a buffered methanol.-fast green solution, washed in distilled water, and stained for an additional 30 minutes with Azure 11. The percentage of cells containing green-colored granules was determined by microscopically counting a minimum of 100-200 of the cells in the smears, and cation protein concentration was recorded as the mean cytotoxic coefficient (MCC) according to a modified formula of Astold & Berg.

M. bovis = assay type: in vivo, mice; settings: mouse, in vivo
[3] = lymph node, 5 days post irradiation (1 Gy)
[4] = lymph node, 10 days post irradiation (1 Gy)
[5] = lymph node, 20 days post irradiation (1 Gy)
[6] = peripheral blood, 5 days post-irradiation
[7] = peripheral blood, 10 days post-irradiation
[8] = peripheral blood, 20 days post-irradiation
[9] = splenic, 5 days post irradiation (1 Gy)
[10] = splenic, 10 days post irradiation (1 Gy)
[11] = splenic, 20 days post irradiation (1 Gy)
[12] = thymic, 5 days post irradiation (1 Gy)
[13] = thymic, 10 days post irradiation (1 Gy)
[14] = thymic, 20 days post irradiation (1 Gy)

Q: Which results are given for L-Glu-L-Trp?
A: Clinical outcome [1]: prevented the occurrence of upper respiratory infections; Clinical outcome (Corneal diseases): stimulates regeneration of corneal epithelium and restoration of visual acuity; Splenic B-lymphocytes (EAC-RFC), % of normal ([2]; day 5): 82%; Thymic T-lymphocyte counts, % of normal ([2]; day 5): 67%; Thymic lymphocytes, % of normal ([2]; day 5): 82%; Splenic B-lymphocytes (EAC-RFC), % of normal ([2]; day 10): 100%; Thymic T-lymphocyte counts, % of normal ([2]; day 10): 51%; Thymic lymphocytes, % of normal ([2]; day 10): 56%; Lymph node T-lymphocyte counts ([2]; guinea pig, in vivo): significantly increased T-lymphocyte counts in lymph nodes on days 5, 10 and 20; E-RFC [2, 3]: 40 +/− 4** × 10^9/L; E-RFC (% Normal) [2, 3]: (122%); EA-RFC [2, 3]: 20 +/− 3** × 10^9/L; EA-RFC (% Normal) [2, 3]: (111%); EAC-RFC [2, 3]: 25 +/− 2** × 10^9/L; EAC-RFC (% Normal) [2, 3]: (45%); Lymphocytes [2, 3]: 183 +/− 21* × 10^9/L; Lymphocytes (% Normal) [2, 3]: (73%); E-RFC [2, 4]: 29 +/− 3** × 10^9/L; E-RFC (% Normal) [2, 4]: (88%); EA-RFC [2, 4]: 17 +/− 2** × 10^9/L; EA-RFC (% Normal) [2, 4]: (94%); EAC-RFC [2, 4]: 12 +/− 1* × 10^9/L; EAC-RFC (% Normal) [2, 4]: (21%); Lymphocytes [2, 4]: 75 +/− 13* × 10^9/L; Lymphocytes (% Normal) [2, 4]: (30%); E-RFC [2, 5]: 30 +/− 2** × 10^9/L; E-RFC (% Normal) [2, 5]: (91%); EA-RFC [2, 5]: 25 +/− 4** × 10^9/L; EA-RFC (% Normal) [2, 5]: (139%); EAC-RFC [2, 5]: 9 +/− 1* × 10^9/L; EAC-RFC (% Normal) [2, 5]: (16%); Lymphocytes [2, 5]: 242 +/− 31** × 10^9/L; Lymphocytes (% Normal) [2, 5]: (96%); Con-A responsiveness and neutrophil cationic proteins ([2]; peripheral blood): statistically significant decrease in Con-A responsiveness and increased levels of neutrophil cationic proteins; Lymphocyte Blastogenesis with Con-A [2, 6]: 44 +/− 4** %; Neutrophil Cationic Protein Levels [2, 6]: 1.42 +/− 0.15*; Lymphocyte Blastogenesis with Con-A [2, 7]: 67 +/− 5** %; Neutrophil Cationic Protein Levels [2, 7]: 1.54 +/− 0.09**; Lymphocyte Blastogenesis with Con-A [2, 8]: 49 +/− 2** %; Neutrophil Cationic Protein Levels [2, 8]: 1.63 +/− 0.11**; E-RFC [2, 9]: 48 +/− 4** × 10^9/L; E-RFC (% Normal) [2, 9]: (120%); EA-RFC [2, 9]: 22 +/− 4** × 10^9/L; EA-RFC (% Normal) [2, 9]: (85%); EAC-RFC [2, 9]: 60 +/− 5** × 10^9/L; EAC-RFC (% Normal) [2, 9]: (82%); Lymphocytes [2, 9]: 378 +/− 36** × 10^9/L; Lymphocytes (% Normal) [2, 9]: (92%); E-RFC [2, 10]: 29 +/− 3* × 10^9/L; E-RFC (% Normal) [2, 10]: (73%); EA-RFC [2, 10]: 15 +/− 2* × 10^9/L; EA-RFC (% Normal) [2, 10]: (58%); EAC-RFC [2, 10]: 73 +/− 5** × 10^9/L; EAC-RFC (% Normal) [2, 10]: (100%); Lymphocytes [2, 10]: 147 +/− 18** × 10^9/L; Lymphocytes (% Normal) [2, 10]: (36%); E-RFC [2, 11]: 45 +/− 4** × 10^9/L; E-RFC (% Normal) [2, 11]: (113%); EA-RFC [2, 11]: 29 +/− 4** × 10^9/L; EA-RFC (% Normal) [2, 11]: (112%); EAC-RFC [2, 11]: 82 +/− 9 × 10^9/L; EAC-RFC (% Normal) [2, 11]: (112%); Lymphocytes [2, 11]: 260 +/− 32** × 10^9/L; Lymphocytes (% Normal) [2, 11]: (64%); E-RFC [2, 12]: 252 +/− 26** × 10^9/L; E-RFC (% Normal) [2, 12]: (67%); EA-RFC [2, 12]: 150 +/− 16** × 10^9/L; EA-RFC (% Normal) [2, 12]: (52%); EAC-RFC [2, 12]: 4 +/− 1** × 10^9/L; EAC-RFC (% Normal) [2, 12]: (80%); Lymphocytes [2, 12]: 395 +/− 27** × 10^9/L; Lymphocytes (% Normal) [2, 12]: (82%); E-RFC [2, 13]: 195 +/− 21** × 10^9/L; E-RFC (% Normal) [2, 13]: (51%); EA-RFC [2, 13]: 143 +/− 16** × 10^9/L; EA-RFC (% Normal) [2, 13]: (49%); EAC-RFC [2, 13]: 3 +/− 0.4* × 10^9/L; EAC-RFC (% Normal) [2, 13]: (60%); Lymphocytes [2, 13]: 276 +/− 26** × 10^9/L; Lymphocytes (% Normal) [2, 13]: (57%); E-RFC [2, 14]: 343 +/− 30** × 10^9/L; E-RFC (% Normal) [2, 14]: (91%); EA-RFC [2, 14]: 243 +/− 28** × 10^9/L; EA-RFC (% Normal) [2, 14]: (84%); EAC-RFC [2, 14]: 4 +/− 0.4 × 10^9/L; EAC-RFC (% Normal) [2, 14]: (80%); Lymphocytes [2, 14]: 423 +/− 40** × 10^9/L; Lymphocytes (% Normal) [2, 14]: (88%); Survival (M. bovis): significantly increased survival; Survival Mean (M. bovis; ip): 39 ± 2 and 36 ± 3 and 30 ± 2 and 33 ± 1 and 31 ± 1 and 28 ± 1; Survival Median (M. bovis; ip): 46 ± 10 and 28 ± 3 and 26 ± 1 and 34 ± 3 and 28 ± 1 and 25 ± 1
